Laboratory results published in the supplement of paper PMC10307832.

What was measured:
Assay in all cases: relative viability (nuclei count vs DMSO), 5 days (fraction); higher = more cells survive
Afatinib + Navitoclax = compound: CN(C)C/C=C/C(=O)Nc1cc2c(Nc3ccc(F)c(Cl)c3)ncnc2cc1O[C@H]1CCOC1 [Afatinib] + CC1(C)CCC(c2ccc(Cl)cc2)=C(CN2CCN(c3ccc(C(=O)NS(=O)(=O)c4ccc(N[C@H](CCN5CCOCC5)CSc5ccccc5)c(S(=O)(=O)C(F)(F)F)c4)cc3)CC2)C1 [Navitoclax] (partner 0.5 µM)
Procedure, shortened: (§1)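 Each reported value is a median over duplicate plates. It expresses relative viability: treated-well nuclei count divided by vehicle-well nuclei count. Lung cancer cell lines in 1536-well plates were dosed by pin tool a day after seeding, alone with one drug or with a fixed anchor-drug dose plus five library-drug doses (not always all listed) in √10 steps, and nuclei were counted after 5 days.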

Afatinib + Luminespib = compound: CN(C)C/C=C/C(=O)Nc1cc2c(Nc3ccc(F)c(Cl)c3)ncnc2cc1O[C@H]1CCOC1 [Afatinib] + CCNC(=O)c1noc(-c2cc(C(C)C)c(O)cc2O)c1-c1ccc(CN2CCOCC2)cc1 [Luminespib] (partner 0.01 µM)
Procedure, shortened: as §1

Afatinib + Foretinib = compound: CN(C)C/C=C/C(=O)Nc1cc2c(Nc3ccc(F)c(Cl)c3)ncnc2cc1O[C@H]1CCOC1 [Afatinib] + COc1cc2c(Oc3ccc(NC(=O)C4(C(=O)Nc5ccc(F)cc5)CC4)cc3F)ccnc2cc1OCCCN1CCOCC1 [Foretinib] (partner 0.25 µM)
Procedure, shortened: as §1

Afatinib + Linsitinib = compound: CN(C)C/C=C/C(=O)Nc1cc2c(Nc3ccc(F)c(Cl)c3)ncnc2cc1O[C@H]1CCOC1 [Afatinib] + C[C@]1(O)C[C@@H](c2nc(-c3ccc4ccc(-c5ccccc5)nc4c3)c3c(N)nccn32)C1 [Linsitinib] (partner 1 µM)
Procedure, shortened: as §1

Cell Line | relative viability (Afatinib + Navitoclax; first compound 0.005 µM) | relative viability (Afatinib + Navitoclax; first compound 0.01581 µM) | relative viability (Afatinib + Navitoclax; first compound 0.05 µM) | relative viability (Afatinib + Navitoclax; first compound 0.1581 µM) | relative viability (Afatinib + Navitoclax; first compound 0.5 µM) | relative viability (Afatinib + Luminespib; first compound 0.005 µM) | relative viability (Afatinib + Luminespib; first compound 0.01581 µM) | relative viability (Afatinib + Luminespib; first compound 0.05 µM) | relative viability (Afatinib + Luminespib; first compound 0.1581 µM) | relative viability (Afatinib + Luminespib; first compound 0.5 µM) | relative viability (Afatinib + Foretinib; first compound 0.005 µM) | relative viability (Afatinib + Foretinib; first compound 0.01581 µM) | relative viability (Afatinib + Foretinib; first compound 0.05 µM) | relative viability (Afatinib + Foretinib; first compound 0.1581 µM) | relative viability (Afatinib + Foretinib; first compound 0.5 µM) | relative viability (Afatinib + Linsitinib; first compound 0.005 µM) | relative viability (Afatinib + Linsitinib; first compound 0.01581 µM) | relative viability (Afatinib + Linsitinib; first compound 0.05 µM) | relative viability (Afatinib + Linsitinib; first compound 0.1581 µM) | relative viability (Afatinib + Linsitinib; first compound 0.5 µM)
LOU-NH91 | 0.402 | 0.39 | 0.441 | 0.348 | 0.402 | 0.319 | 0.295 | 0.325 | 0.326 | 0.311 | 0.541 | 0.524 | 0.592 | 0.497 | 0.568 | 0.527 | 0.551 | 0.58 | 0.534 | 0.591
LU99A | 0.859 | 0.706 | 0.797 | 0.793 | 0.883 | 0.198 | 0.294 | 0.25 | 0.343 | 0.305 | 0.957 | 0.818 | 0.831 | 0.77 | 0.785 | 0.509 | 0.562 | 0.488 | 0.453 | 0.477
LXF-289 | 0.975 | 0.885 | 0.91 | 0.927 | 0.963 | 0.748 | 0.604 | 0.719 | 0.656 | 0.564 | 0.983 | 0.977 | 0.905 | 0.91 | 0.884 | 1 | 0.927 | 0.947 | 0.851 | 0.947
NCI-H23 | 0.973 | 0.843 | 0.881 | 0.735 | 0.814 | 0.226 | – | 0.2 | 0.209 | 0.216 | 0.99 | 1.02 | 1.02 | 0.847 | 0.951 | 0.601 | 0.628 | 0.584 | 0.523 | 0.486
NCI-H322M | 1.28 | 0.864 | 0.586 | 0.405 | 0.371 | 0.705 | 0.566 | 0.443 | 0.496 | 0.405 | 0.765 | 0.566 | 0.493 | 0.535 | 0.449 | 0.847 | 0.616 | 0.468 | 0.419 | 0.588
NCI-H441 | 0.904 | 0.516 | 0.446 | 0.399 | 0.294 | 0.442 | 0.431 | 0.325 | 0.249 | 0.222 | 1.22 | 0.837 | 0.987 | 0.742 | 0.75 | 0.529 | 0.523 | 0.516 | 0.503 | 0.425
NCI-H460 | 1.21 | 1.06 | 1.14 | 1.18 | 1.11 | 0.0369 | 0.0258 | 0.0533 | 0.0327 | 0.032 | 0.987 | 0.895 | 0.943 | 1.07 | 0.978 | 0.74 | 0.713 | 0.905 | 0.866 | 0.796
NCI-H520 | 1.21 | 1.15 | 1.02 | 1.1 | 1.11 | 0.21 | 0.264 | 0.223 | 0.215 | 0.234 | 0.83 | 0.656 | 0.698 | 0.812 | 0.744 | 0.983 | 0.998 | 0.992 | 0.931 | 0.802
